Test results from US20240366612A1, “COMPOUNDS AND METHODS FOR MODULATING NUCLEIC ACID SPLICING” (REMIX THERAPEUTICS INC., priority 2021, published 2024).

What was measured:
SMN2 CJ mRNA = assay: Gene panel canonical junction qPCR assay, SMN2; format: cell-based; conditions: Homo sapiens, larger gene panel, read-out: SMN2 IC50 (decrease in CJ mRNA levels)
Experimental: (§1) Compounds described herein were used to modulate RNA transcript abundance in cells. The expression of a target mRNA was measured by detecting the formation of an exon-exon junction in the canonical transcript (CJ). A compound mediated exon-inclusion event was detected by observing an increase in formation of a new junction with an alternative exon (AJ). Real-time qPCR assays were used to detect these splicing switches and interrogate the potency of various compounds towards different target genes. A high-throughput real time quantitative PCR (RT-qPCR) assay was developed to measure these two isoforms of the mRNA (CJ and AJ) for exemplary genes, such as HTT, SMN2, and MYB, together with a control housekeeping gene, GAPDH or GUSB or PPIA, used for normalization. Briefly, the A673 or K562 cell line was treated with various compounds described herein (e.g., compounds of Formula (I)). After treatment, the levels of the HTT, MYB, or SMN2 mRNA targets were determined from each sample of cell lysate by cDNA synthesis followed by qPCR.
(§2) The A673 cell line was cultured in DMEM with 10% FBS. Cells were diluted with full growth media and plated in a 96-well plate (15,000 cells in 100 ul media per well). The plate was incubated at 37° C. with 5% CO2 for 24 hours to allow cells to adhere. An 11-point 3-fold serial dilution of the compounds was made in DMSO then diluted in media in an intermediate plate. Compounds were transferred from the intermediate plate to the cell plate with the top dose at a final concentration of 10 uM in the well. Final DMSO concentration was kept at or below 0.25%. The cell plate was returned to the incubator at 37° C. with 5% CO2 for an additional 24 hours.
(§3) The K562 cell line was cultured in IMDM with 10% FBS. For K562, cells were diluted with full growth media and plated in either a 96-well plate (50,000 cells in 50 uL media per well) or a 384-well plate (8,000-40,000 cells in 45 uL media per well). An 11-point 3-fold serial dilution of the compounds were made in DMSO then diluted in media in an intermediate plate. Compound was transferred from the intermediate plate to the cell plate with the top dose at a final concentration of 10 uM in the well. Final DMSO concentration was kept at or below 0.25%. Final volume was 100 uL for 96-well plate and 50 uL for 384-well plate. The cell plate was then placed in an incubator at 37° C. with 5% CO2 for 24 hours.
(§4) The data analysis was performed by first determining the ΔCt vs the housekeeper gene. This ΔCt was then normalized against the DMSO control (ΔΔCt) and converted to RQ (relative quantification) using the 2^(−ΔΔCt) equation. The RQ were then converted to a percentage response by arbitrarily setting an assay window of 3.5 and 4.0 ΔCt for HTT-CJ and MYB-CJ respectively and an assay window of 9 and 3 ΔCt for HTT-AJ and MYB-AJ in 96 well format (50,000 K562 cells/well and 15,000 A673 cells per well) and an assay window of 3 and 4 ΔCt for HTT-CJ and MYB-CJ respectively and an assay window of 5 and 3 ΔCt for HTT-AJ and MYB-AJ respectively in 384 well format (8,000 K562 cells/well example). […] The percentage response was then fitted to the 4 parametric logistic equation to evaluate the concentration dependence of compound treatment. The increase in AJ mRNA is reported as AC50 (compound concentration having […] in AJ increase) while the decrease in CJ mRNA levels is reported as IC50 (compound concentration having 50% response in CJ decrease).
(§5) Additional studies were carried out for a larger panel of genes using the protocol provided above. The junction between flanking upstream and downstream exons was used to design canonical junction qPCR assays. At least one of the forward primer, reverse primer or the CY5-labeled 5′ nuclease probe (with 3′ quencher such as ZEN/Iowa Black FQ) was designed to overlap with the exon junction to capture the CJ mRNA transcript. […]

MYB CJ mRNA = assay: Gene panel canonical junction qPCR assay, MYB; format: cell-based; conditions: Homo sapiens, larger gene panel, read-out: MYB IC50 (decrease in CJ mRNA levels)
Experimental: as §1, §2, §3, §4, §5

[1] = Cell Titer Glo 2.0 cell viability assay; conditions: human, K562 cells
Experimental: Compounds described herein were screened for toxicity in K562 (human chronic myelogenous leukemia) cells using a Cell Titer Glo 2.0 assay.
• Promega CellTiter-Gbo® 2.0 Cell Viability Assay (cat #G9241) • Corning 384-well TC-treated microplates (cat #3570)
Cells were plated at 500 cells/well (K562 cells) in 45 μL of IMDM supplemented with 10% FBS in a 384-well opaque plate. Wells containing only medium were used as a blank control. Test compounds (e.g., compounds of Formula (I), (II), and (III)) were first serially diluted in DMSO then diluted 1:100 with IMDM+10% FBS. The final concentration of DMSO was 0.1% in each well. The cells were incubated for 72 hours at 37° C. and 5% CO2 before assaying with Cell Titer Glo 2.0 reagent.

MYB mRNA = assay: Splicing RT-qPCR assay, MYB canonical (CJ) and alternative (AJ) junction mRNA; format: cell-based; conditions: Homo sapiens, A673 or K562 cells, 24 hours treatment; for IC50: decrease in CJ mRNA; for AC50: increase in AJ mRNA
Experimental: as §1
• Cells-to-CT 1-step kit: ThermoFisher A25602, Cells-to-CT lysis reagent: ThermoFisher 4391851C, TaqMan™ Fast Virus 1-Step Master Mix: ThermoFisher 4444436 • GAPDH: VIC-PL, ThermoFisher 4326317E (Assay: Hs99999905_ml)—used for K562/suspension cell lines • GUSB: VIC-PL, ThermoFisher 4326320E (Assay: Hs99999908_ml)—used for K562/suspension cell lines • PPIA: VIC-PL, ThermoFisher 4326316E (Assay: Hs99999904_ml)—used for A673/adherent cell lines
as §2, §3
The cells were then gently washed with 50 uL-100 uL cold PBS before proceeding to addition of lysis buffer. 30 uL-50 μL of room temperature lysis buffer with DNAse I (and optionally RNAsin) was added to each well. Cells were shaken/mixed thoroughly at room temperature for 5-10 minutes for lysis to take place and then 3 uL-5 μL of room temperature stop solution was added and wells were shaken/mixed again. After 2-5 minutes, the cell lysate plate was transferred to ice for RT-qPCR reaction setup. The lysates could also be frozen at −80° C. for later use.
In some cases, a direct lysis buffer was used. An appropriate volume of 3×lysis buffer (10 mM Tris, 150 mM NaCl, 1.5%-2.5% Igepal and 0.1-1 U/uL RNAsin, pH 7.4) was directly added to either K562 or A673 cells in media and mixed by pipetting 3 times. The plates were then incubated at room temperature with shaking/rocking for 20-50 minutes to allow for lysis to take place. After this time, the cell lysate plate was transferred to ice to set up for the RT-qPCR reactions. The lysates could also be frozen at −80° C. for later use. […]

With `Cc1cc(-c2nn3c(=O)cc(N4CCN(C)CC4)nc3s2)cc2cn(C)nc12` [Compound 210, 2-(2,7-dimethyl-2H-indazol-5-yl)-7-(4-methylpiperazin-1-yl)-5H-[1,3,4]thiadiazolo[3,2-a]pyrimidin-5-one] as the compound, how does the IC50 (SMN2 CJ mRNA) read?
Its IC50 is 1000 to 10000 nM.

And the IC50 (MYB CJ mRNA)?
Its IC50 is 1 to 10 µM.

And the GI50 at 72 h [1]?
The GI50 at 72 h was 1 to 10 µM.

And the IC50 (MYB mRNA)?
Its IC50 is 1 to 10 µM.

And the AC50 (MYB mRNA)?
The AC50 was 1000 to 10000 nM.

Which IC50 (SMN2 CJ mRNA) does the source give for `Cc1cn2nc(-c3cc(=O)n4cc(N5CCNC6(CC6)C5)sc4n3)cc(C)c2n1` [Compound 211, 7-(2,8-dimethylimidazo[1,2-b]pyridazin-6-yl)-2-(4,7-diazaspiro[2.5]octan-7-yl)-5H-thiazolo[3,2-a]pyrimidin-5-one] here?
Its IC50 is 100 to 1000 nM.

What about the IC50 (MYB CJ mRNA) of the same compound?
Its IC50 is 1 to 10 µM.

And the GI50 at 72 h [1]?
Its GI50 at 72 h is 1 to 10 µM.

And the IC50 (MYB mRNA)?
The IC50 was 1 to 10 µM.

What about the AC50 (MYB mRNA) of the same compound?
Its AC50 is 100 to 1000 nM.

With `Cc1cn2nc(-c3cn4c(=O)cc(N5CCNC6(CC6)C5)nc4s3)cc(C)c2n1` [Compound 212, 2-(2,8-dimethylimidazo[1,2-b]pyridazin-6-yl)-7-(4,7-diazaspiro[2.5]octan-7-yl)-5H-thiazolo[3,2-a]pyrimidin-5-one] as the compound, how does the IC50 (SMN2 CJ mRNA) read?
Its IC50 is 1000 to 10000 nM.

And the IC50 (MYB CJ mRNA)?
Its IC50 is 1 to 10 µM.

What about the GI50 at 72 h [1] of the same compound?
The GI50 at 72 h was 1 to 10 µM.

What about the IC50 (MYB mRNA) of the same compound?
The IC50 was 1 to 10 µM.

And the AC50 (MYB mRNA)?
Its AC50 is 1000 to 10000 nM.

With `Cc1cn2cc(-c3cn4c(=O)cc(N5CCNCC5)nc4s3)cc(F)c2n1` [Compound 213, 2-(8-fluoro-2-methylimidazo[1,2-a]pyridin-6-yl)-7-(piperazin-1-yl)-5H-thiazolo[3,2-a]pyrimidin-5-one] as the compound, how does the IC50 (SMN2 CJ mRNA) read?
Its IC50 is 1000 to 10000 nM.

And the IC50 (MYB CJ mRNA)?
Its IC50 is > 10 µM.

What about the GI50 at 72 h [1] of the same compound?
The GI50 at 72 h was > 10 µM.

And the IC50 (MYB mRNA)?
The IC50 was > 10 µM.

And the AC50 (MYB mRNA)?
Its AC50 is > 10000 nM.

What does the source list for `Cc1cn2cc(-c3nn4c(=O)cc(N5CCNCC5)nc4s3)cc(F)c2n1` [Compound 214, 2-(8-fluoro-2-methylimidazo[1,2-a]pyridin-6-yl)-7-(piperazin-1-yl)-5H-[1,3,4]thiadiazolo[3,2-a]pyrimidin-5-one]?
IC50 (SMN2 CJ mRNA): 100 to 1000 nM; IC50 (MYB CJ mRNA): 1 to 10 µM; GI50 at 72 h [1]: 1 to 10 µM; IC50 (MYB mRNA): 1 to 10 µM; AC50 (MYB mRNA): 1000 to 10000 nM

What does the source list for `Cc1cn2cc(-c3nn4c(=O)cc(N5CCNC6(CC6)C5)nc4s3)cc(F)c2n1` [Compound 216, 2-(8-fluoro-2-methylimidazo[1,2-a]pyridin-6-yl)-7-(4,7-diazaspiro[2.5]octan-7-yl)-5H-[1,3,4]thiadiazolo[3,2-a]pyrimidin-5-one]?
IC50 (SMN2 CJ mRNA): 1000 to 10000 nM; IC50 (MYB CJ mRNA): 1 to 10 µM; GI50 at 72 h [1]: 1 to 10 µM; IC50 (MYB mRNA): 1 to 10 µM; AC50 (MYB mRNA): 1000 to 10000 nM

Which IC50 (SMN2 CJ mRNA) does the source give for `Cc1cn2cc(-c3nn4c(=O)cc(N5CCN(C)CC5)nc4s3)cc(F)c2n1` [Compound 217, 2-(8-fluoro-2-methylimidazo[1,2-a]pyridin-6-yl)-7-(4-methylpiperazin-1-yl)-5H-[1,3,4]thiadiazolo[3,2-a]pyrimidin-5-one] here?
Its IC50 is 1000 to 10000 nM.

And the IC50 (MYB CJ mRNA)?
Its IC50 is 1 to 10 µM.

What about the GI50 at 72 h [1] of the same compound?
Its GI50 at 72 h is 1 to 10 µM.

What about the IC50 (MYB mRNA) of the same compound?
The IC50 was 1 to 10 µM.

What about the AC50 (MYB mRNA) of the same compound?
Its AC50 is 1000 to 10000 nM.

With `Cc1cn2cc(-c3nn4c(=O)cc(N5CCN(C)C6(CC6)C5)nc4s3)cc(F)c2n1` [Compound 218, 2-(8-fluoro-2-methylimidazo[1,2-a]pyridin-6-yl)-7-(4-methyl-4,7-diazaspiro[2.5]octan-7-yl)-5H-[1,3,4]thiadiazolo[3,2-a]pyrimidin-5-one] as the compound, how does the IC50 (SMN2 CJ mRNA) read?
Its IC50 is 1000 to 10000 nM.

What about the IC50 (MYB CJ mRNA) of the same compound?
The IC50 was 1 to 10 µM.

And the GI50 at 72 h [1]?
The GI50 at 72 h was 1 to 10 µM.

What about the IC50 (MYB mRNA) of the same compound?
The IC50 was 1 to 10 µM.

What about the AC50 (MYB mRNA) of the same compound?
The AC50 was 1000 to 10000 nM.

What does the source list for `Cn1cc2cc(-n3cnc4nc(N5CCNCC5)sc4c3=O)ccc2n1` [Compound 225, 6-(2-methyl-2H-indazol-5-yl)-2-(piperazin-1-yl)thiazolo[4,5-d]pyrimidin-7(6H)-one]?
IC50 (SMN2 CJ mRNA): > 10000 nM; IC50 (MYB CJ mRNA): > 10 µM; GI50 at 72 h [1]: > 10 µM; IC50 (MYB mRNA): > 10 µM; AC50 (MYB mRNA): > 10000 nM

Which results are given for `Cc1cn2cc(-n3cnc4nc(N5CCNCC5)sc4c3=O)cc(F)c2n1` [Compound 226, 6-(8-fluoro-2-methylimidazo[1,2-a]pyridin-6-yl)-2-(piperazin-1-yl)thiazolo[4,5-d]pyrimidin-7(6H)-one]?
IC50 (SMN2 CJ mRNA): 100 to 1000 nM; IC50 (MYB CJ mRNA): 0.1 to 1 µM; GI50 at 72 h [1]: 0.1 to 1 µM; IC50 (MYB mRNA): 0.1 to 1 µM; AC50 (MYB mRNA): 100 to 1000 nM
